Legend:
Nucleic Acid [1] = experiment: Inhibitory activity against mammalian DNA polymerase alpha; format: nucleic-acid assay
Nucleic Acid [2] = experiment: Inhibitory activity against mammalian DNA polymerase beta; format: nucleic-acid assay
[3] = molecular target: DNA nucleotidylexotransferase (Homo sapiens, UniProt P04053); experiment: Inhibitory activity against human terminal deoxynucleotidyltransferase
Sequence of DNA nucleotidylexotransferase (P04053 whole entry): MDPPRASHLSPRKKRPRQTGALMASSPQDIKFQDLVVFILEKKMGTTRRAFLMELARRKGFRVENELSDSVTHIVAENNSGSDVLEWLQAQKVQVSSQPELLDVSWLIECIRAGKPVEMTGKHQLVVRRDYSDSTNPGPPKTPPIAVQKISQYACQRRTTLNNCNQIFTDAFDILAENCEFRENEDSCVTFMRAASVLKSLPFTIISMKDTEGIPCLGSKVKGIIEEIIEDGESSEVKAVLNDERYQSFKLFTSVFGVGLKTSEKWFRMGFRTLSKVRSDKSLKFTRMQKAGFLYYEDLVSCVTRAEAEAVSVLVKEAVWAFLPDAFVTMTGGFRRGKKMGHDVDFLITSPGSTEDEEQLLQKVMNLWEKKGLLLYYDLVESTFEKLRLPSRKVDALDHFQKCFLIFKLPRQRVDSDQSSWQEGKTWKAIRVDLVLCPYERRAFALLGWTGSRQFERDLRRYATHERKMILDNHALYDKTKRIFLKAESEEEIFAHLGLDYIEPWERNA

| IC50 (Nucleic Acid [1]) [µM] | IC50 (Nucleic Acid [2]) [µM] | IC50 [3] [µM] | Compound |
| --- | --- | --- | --- |
| 17 | 107 | 129 | CCCCCCCCCCCCCCCCC1=C(C(=O)OC)C(=O)CC1 |
| 5.9 | 9.3 | 18 | CCCCCCCCCCCCCCCC[C@]1(OCOC)C=CC(=O)[C@H]1C(=O)OC (racemic) |
| > 200 | > 200 | > 200 | CCCCCCCCCCCCCCCC[C@]1(O)C=CC(=O)C1 (racemic) |
| 20 | 90 | 84 | CCCCCCCCCCCCCCCC[C@H]1C=CC(=O)[C@@H]1C(=O)OC (racemic) |
| 1.9 | 3.2 | 2.5 | CCCCCCCCCCCCCCCCC1=C[C@H](C(=O)O)[C@H]2CC(C(=O)O)=C(CCCCCCCCCCCCCCCC)[C@H]2[C@H]1C(=O)OC (racemic) |
| 4.3 | 57 | 16 | CCCCCCCCCCCCCCCC[C@]1(O)C=CC(=O)[C@H]1C(=O)OC (racemic) [UNTENONE A] |

Reference: ChEMBL document CHEMBL1147525, “Structure-activity relationships of untenone A and its derivatives for inhibition of DNA polymerases” (Bioorg Med Chem Lett, 2004)
